# From patent US20240016784A1, “Y BOX BINDING PROTEIN 1 INHIBITORS” (Oregon Health & Science University, priority 2020, published 2024)
# Assays:
# [1] = Liver toxicity parameters (ALT, AST, ALKP) in ID8 study; assay type: in vivo, C57BL/6 mice; details: 20 mg/kg daily IP, 42 days
# Protocol: (§1) These promising results led us to test SU093 and SU056 in vivo. C57BL/6 mice were implanted with 2×10^6 firefly luciferase (luc+)-expressing ID-8 syngeneic ovarian cancer cells subcutaneously. Once the tumors reached 100 mm^3 in size, we began daily intraperitoneal treatment with SU093 and SU056 at 20 mg/kg (vehicle control 30% PEG-300 in saline). Tumor growth was monitored via bioluminescence imaging (IVIS).
# (§2) In vivo xenograft model and drug efficacy study: All animal experiments were reviewed and approved by the Animal Care and Use Committee of Stanford University, CA, USA. Luciferase tagged ID8 (2×10^6) or OVCAR8 (5×10^6) cells were implanted into the right flank of 6-7-week-old female C57BL/6 mice and NOD/SCID mice, respectively. Respective treatment began after tumors grew to 100-200 mm^3 diameters. The ID8 syngeneic mice model was treated with a vehicle (30% PEG-300 in saline), 20 mg/kg SU093, and 20 mg/kg SU056 intraperitoneally (IP) daily for 42 days. At the end of treatment, blood was collected from each mouse and analyzed for liver toxicity parameters, including Alanine Aminotransferase (ALT), Aspartate Aminotransferase (AST), and Alkaline Phosphatase (ALKP). […]
# SKOV-3 = experiment: Clonogenic assay; assay type: cell-based, human; details: 0.5 & 1 μM
# Protocol: (§3) We tested the relationship between AzPs dose and the viability of human ovarian cancer cell lines and the ID8 murine ovarian cancer cell line.
# (§4) Clonogenic assay: 300 suspended OC cells were plated in each well of 12 well plates (Corning-Costar, #3598) and incubated for 24 h for attachment. The media was replaced after 24 h with media containing a respective concentration of the test compound and incubated for 5-8 days until visible colonies appeared in vehicle-treated wells. Cells were then washed and fixed with 2% paraformaldehyde, followed by washing and staining with 0.5% Crystal violet for 1 h. Cells were de-stained using DI water and allowed to dry. Colonies were counted under the microscope at 100× magnification.
# (§5) FIG. 1A) Lead optimization of SU093 to obtain SU056. FIG. 1B) IC50 values of SU093 and SU056 on various ovarian cancer cells. Clonogenic survival of OC cells treated with SU093 or SU056. […] FIG. 1C) Representative colony formation from respective wells. FIG. 1D) Number of colonies formed after SU093 and SU056 treatment. […] FIG. 1F) Cell cycle distribution of propidium iodide (PI)-stained OVCAR8, SKOV3, and ID8 cells. […] FIG. 1G) Effects of SU093 and SU056 on apoptotic cell death analyzed by Annexin-FITC staining. […] FIG. 1H) Cell migration assay.
# OVCAR-8 and ID8 cells = experiment: Clonogenic assay; assay type: cell-based
# Protocol: as §3, §4, §5
# [2] = system: OVCAR8, SKOV3, and ID8 cells; experiment: Cell cycle analysis (propidium iodide, flow cytometry); assay type: cell-based; details: 12 h treatment; PI-stained OVCAR8, SKOV3, ID8
# Protocol: (§6) To determine whether proliferation inhibition was the dominant factor driving the reduction in OC viability seen with AzP treatment, we used propidium iodide and annexin-FITC stains with flow cytometry to measure the distribution of cell cycle phases after treatment. […] Furthermore, in the Boyden chamber assay for cell migration, SU093 inhibited cell migration by 40-46% (1 μM, P<0.05) in different OC cell lines.
# Cell cycle analysis: 30,000 OC cells were plated in each well of 12 well plates and incubated for 24 h. […] Both live and dead cells were collected via trypsinization and cell pellets were fixed with 70% ethanol. Fixed cells were stained using propidium iodide (PI) cocktail (80 μg/mL RNase A and 50 μg/mL PI in saponin-EDTA solution) and incubated at 4° C. overnight. Each sample was analyzed using a Guava® easyCyte™ Flow Cytometer (Millipore, Burlington, MA). FlowJo software calculated the % cells in each cell cycle phase.
# as §5
# ovarian cancer cells = experiment: Apoptotic cell death assay (Annexin-FITC); assay type: cell-based; details: 24 h treatment; Annexin-FITC staining
# Protocol: as §6
# Apoptotic cell death assay: Cells were plated and treated as described in cell cycle analysis assay above. Treated cells were incubated for 24 h and both live and dead cells were collected. Cells were stained with Annexin V and PI using FITC Annexin V apoptosis detection kit (BD Pharmingen, San Jose, CA) by following the manufacturer's protocol. Guava® easyCyte™ Flow Cytometer was used to analyze the stained cells.
# as §5
# OC cell lines = experiment: Cell migration assay (Boyden chamber); assay type: cell-based; details: different OC cell lines, P<0.05
# Protocol: as §6
# Cell migration assay: 1×10^5 cells were plated in 60 mm cell culture dishes (Corning-Falcon, #353002) and incubated for 24 h. […] Cells were trypsinized and collected in a conical tube for each plate. Pellets of cells were resuspended, and live cells were counted using a hemocytometer and trypan blue staining. 40,000 live cells were then plated in the upper chamber of 8-micron transwell (Corning-Falcon, #353097) with 0.2% FBS media. The lower chamber contained 10% FBS complete media. […] Each transwell was washed, swiped for non-migrated cells and fixed using 75% ethanol. Fixed transwells were stained with 0.5% crystal violet for 1 h. De-stained transwell membranes were cut and mounted on a slide using DPX mounting media. Migrated cells were counted under the microscope at 100× magnification.
# FIG. 1A) Lead optimization of SU093 to obtain SU056. […] FIG. 1G) Effects of SU093 and SU056 on apoptotic cell death analyzed by Annexin-FITC staining. […]
# ID-8 tumor xenograft = experiment: ID8 syngeneic ovarian tumor model, tumor growth and lung metastasis; assay type: in vivo, C57BL/6 mice
# Protocol: as §1
# Due to prior observation of a significant reduction in the migratory ability of OC cells treated with the two drugs (FIG. 1H), we also measured the effect of drug treatment on ovarian cancer metastases. At the end of above experiment, lungs were fixed and metastatic foci were counted under the dissecting microscope followed by H&E staining.
# In vivo xenograft model and drug efficacy study: All animal experiments were reviewed and approved by the Animal Care and Use Committee of Stanford University, CA, USA. Luciferase tagged ID8 (2×10^6) or OVCAR8 (5×10^6) cells were implanted into the right flank of 6-7-week-old female C57BL/6 mice and NOD/SCID mice, respectively. Respective treatment began after tumors grew to 100-200 mm^3 diameters. The ID8 syngeneic mice model was treated with a vehicle (30% PEG-300 in saline), 20 mg/kg SU093, and 20 mg/kg SU056 intraperitoneally (IP) daily for 42 days. At the end of treatment, blood was collected from each mouse and analyzed for liver toxicity parameters, including Alanine Aminotransferase (ALT), Aspartate Aminotransferase (AST), and Alkaline Phosphatase (ALKP). OVCAR8 xenograft mice model was treated with vehicle (30% PEG-300 in saline), 5 mg/kg paclitaxel (once a week), 10 mg/kg SU056 (daily), a combination of paclitaxel (5 mg/kg, once a week) and SU056 (10 mg/kg, daily) for 4 weeks. Mice from both studies were euthanized, the tumor and different organs were collected and fixed in neutral buffered formalin and further processed for immunohistochemical analysis.
# FIGS. 2A-2F. SU093 and SU056 inhibit mice ovarian ID-8 tumor xenograft growth in C57BL/6 mice. Mice were subcutaneously injected with ID-8 cells mixed with Matrigel in 1:1 ratio and the drug treatment started when tumors reached 100 mm^3. […] FIG. 2B) Tumor volume/mouse as a function of time. […] FIG. 2C) Tumor weight/mouse at the end of the study. […] FIG. 2D) Liver toxicity parameters at the end of 42 days showing no significant difference between control, SU093, and SU056. FIGS. 2E-2F) Lung metastasis assay. FIG. 2E) H&E staining of the lung (red arrow indicates the metastasis from ID8 xenograft). Scale bar, 250 μm. FIG. 2F) No. of lung metastatic nodules.
# OVCAR8 OC tumors = experiment: OVCAR8 xenograft combination study; assay type: in vivo, NOD-SCID mice; details: SU056 10 mg/kg daily, paclitaxel 5 mg/kg weekly, intraperitoneal, 28 days
# Protocol: In a pharmacokinetics study in vivo, injection of 20 mg/kg SU056 led to a maximum serum concentration of 28.19 μg/mL with a T1/2 of ˜45 min. We then tested the synergism of paclitaxel and SU056 co-treatment in vivo in NOD-SCID mice implanted with OVCAR8 OC tumors as described above. Mice were given daily treatment of SU056 (10 mg/kg) and weekly treatment of paclitaxel (5 mg/kg) were administered intraperitoneally. […] This likely resulted from decreased paclitaxel efflux from OVCAR8 cells in the presence of SU056.
# as §2
# YB-1 and MDR1 = experiment: Immunoblotting of YB-1 and MDR1 in OVCAR8 cells; assay type: cell-based, human; details: paclitaxel 0.5 nM, SU056 0.5 μM, 12 h
# Protocol: Immunoblotting: Once 70% confluency of OC cells plated in 100 mm cell culture was obtained, dishes were treated with a respective concentration of SU056 for a respective time. At the end of treatment, cells were collected and lysed using M-PER™ lysis solution (Thermo Scientific, #78503), supplemented with Halt protease and phosphatase inhibitor cocktail (Thermo Scientific, #78440). An equal amount (40-60 μg) of proteins was resolved using 8%/10%/12% SDS-PAGE gel electrophoresis. Proteins were then transferred onto a PVDF membrane (Bio-Rad, #162-01277). Blocked membranes were incubated with respective primary antibody solution prepared in 5% nonfat milk TPBS at 4° C. overnight with gentle rocking. Primary antibody-probed membranes were washed and probed with respective HRP-conjugated secondary antibody. Proteins were detected using Immobilon® Crescendo Western HRP Substrate (Millipore, Germany) and visualized on an IVIS Lumina Imaging System (Perkin Elmer, Waltham, MA). […]
Compound,"impact on blood chemistry indicators (AST, ALT, alkaline phosphatase) [1]","colony formation, effect on SKOV-3 (SKOV-3)",OC colony formation (OVCAR-8 and ID8 cells),cell cycle distribution [2],apoptotic cell death (ovarian cancer cells),inhibition at 1 µM (OC cell lines) [%],"reduction in tumor weight (ID-8 tumor xenograft; 20 mg/kg daily IP, at 42 days) [fold]","tumor progression vs vehicle control (ID-8 tumor xenograft; 20 mg/kg daily intraperitoneal, bioluminescence imaging)",OC tumor growth (OVCAR8 OC tumors),expression of YB-1 and MDR1 (Western blot) (YB-1 and MDR1)
"COc1ccc2c(c1)N(CCO)C1=C(C(=O)OC1)C2c1cccc(F)c1 (stereo not shown) [SU093, 9-(3-fluorophenyl)-4-(2-hydroxyethyl)-6-methoxy-4,9-dihydrofuro[3,4-b]quinolin-1(3H)-one, reference compound]",no significant impact,moderately affect,decreased OC colony formation in a dose-dependent and significant manner,G1 phase arrest,induce apoptotic cell death,40 to 46,1.5,significantly delay the tumor progression,–,–
"CC(=O)O[C@H]1C(=O)[C@@]2(C)[C@H]([C@H](OC(=O)c3ccccc3)[C@]3(O)C[C@H](OC(=O)[C@H](O)[C@@H](NC(=O)c4ccccc4)c4ccccc4)C(C)=C1C3(C)C)[C@]1(OC(C)=O)CO[C@@H]1C[C@@H]2O [paclitaxel, reference compound]",–,–,–,–,–,–,–,–,significant reduction in OC tumor growth,upregulate the expression of YB-1 and MDR1
